Data as given in patent US20220324835A1 (Nurix Therapeutics, Inc., priority 2018, published 2022).

Assays:
[1] = target: T1, Cbl-b (Homo sapiens, UniProt Q13191); assay: Cbl-b inhibition assay (Cbl-b activity assay, FRET, Biological Example 1; 100 mM NaCl, 60 nM Src kinase); type: biochemical; conditions: upper bound stated in text lists; read-out: IC50 values in the Cbl-b inhibition assay of Biological Example 1
In short: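 N-terminally biotinylated Avi-tagged Cbl-b was mixed with Src kinase, UbcH5B covalently conjugated to Bodipy-fluorescein ubiquitin, and streptavidin-terbium. Src phosphorylation lets Cbl-b bind UbcH5B-Ub, giving terbium-fluorescein FRET; inhibition is read as loss of FRET signal.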

[2] = tested on: T-cell; assay: CD25 cell surface staining on T-cells co-stimulated with anti-CD3 and anti-CD28 antibody (Biological Example 2); type: cell-based, human; conditions: Homo sapiens, T-cell, primary human total T-cells, baseline = anti-CD3/anti-CD28 stimulated cells without inhibitor, read-out: CD25 staining, Anti-CD3/Anti-CD28 stimulation, fold change over baseline; for fold induction at 0.3 µM: 0.3 μM compound; for fold induction at 1 µM: 1 μM compound; for fold induction at 4 µM: 4 μM compound
In short: (§1)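 T-cells were stimulated with anti-CD3 antibody alone or with anti-CD28 antibody, in the presence or absence of Cbl-b inhibitor. IL-2 secretion or CD25 surface staining was measured, and values expressed as fold over the uninhibited baseline […].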

[3] = tested on: T-cell; assay: IL-2 secretion from T-cells stimulated with anti-CD3 antibody alone (Biological Example 2); type: cell-based; conditions: primary human total T-cells, read-out: IL-2 secretion, Anti-CD3 stimulation, fold change over baseline; for fold induction at 1 µM: 1 μM compound; for fold induction at 8 µM: 8 μM compound
[4] = tested on: T-cell; assay: IL-2 secretion from T-cells co-stimulated with anti-CD3 and anti-CD28 antibody (Biological Example 2); type: cell-based, human; conditions: Homo sapiens, T-cell, primary human total T-cells, baseline = anti-CD3/anti-CD28 stimulated cells without inhibitor, read-out: IL-2 secretion, Anti-CD3/Anti-CD28 stimulation, fold change over baseline; for fold induction at 0.3 µM: 0.3 μM compound; for fold induction at 1 µM: 1 μM compound; for fold induction at 4 µM: 4 μM compound
In short: as §1

[5] = tested on: T-cell; assay: CD25 cell surface staining on T-cells stimulated with anti-CD3 antibody alone (Biological Example 2); type: cell-based; conditions: primary human total T-cells, baseline = anti-CD3/anti-CD28 stimulated cells without inhibitor, read-out: CD25 staining, Anti-CD3 stimulation, fold change over baseline; for fold induction at 1 µM: 1 μM compound; for fold induction at 8 µM: 8 μM compound
[6] = target: T1, Cbl-b; assay: Cbl-b activity assay (Cbl-b inhibition assay), TR-FRET of Cbl-b interaction with UbcH5B-Ub; type: biochemical; conditions: assay buffer with 100 mM NaCl, 60 nM Src kinase; read-out: Cbl-b activity IC50
In short: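 UbcH5B (C85K) conjugated to N-terminally Bodipy-Fluorescein-labeled ubiquitin served as the fluorescent partner. After compound preincubation, Src kinase (60 nM) with 1 mM ATP and 5 mM MgCl2 (final) was added for 1.5 h, followed by a further 1 h incubation. Some values were obtained with 50 mM NaCl and 30 nM Src.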

T1 sequence (Q13191 36-427): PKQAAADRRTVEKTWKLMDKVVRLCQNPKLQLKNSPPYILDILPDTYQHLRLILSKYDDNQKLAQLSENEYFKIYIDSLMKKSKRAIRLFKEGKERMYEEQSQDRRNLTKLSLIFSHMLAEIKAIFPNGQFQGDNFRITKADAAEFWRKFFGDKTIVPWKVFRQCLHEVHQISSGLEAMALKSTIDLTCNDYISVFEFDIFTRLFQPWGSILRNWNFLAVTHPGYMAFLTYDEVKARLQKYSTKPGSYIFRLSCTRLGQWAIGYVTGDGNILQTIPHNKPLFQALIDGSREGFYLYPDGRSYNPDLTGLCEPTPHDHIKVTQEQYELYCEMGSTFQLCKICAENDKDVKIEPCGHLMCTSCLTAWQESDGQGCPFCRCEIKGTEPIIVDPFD

SMILES	IC50 [1] [µM]	fold induction at 0.3 µM [2]	fold induction at 1 µM [2]	fold induction at 4 µM [2]	fold induction at 1 µM [3]	fold induction at 8 µM [3]	fold induction at 0.3 µM [4]	fold induction at 1 µM [4]	fold induction at 4 µM [4]	fold induction at 1 µM [5]	fold induction at 8 µM [5]	IC50 [6] [µM]
C[C@H]1CN(C)CCN1c1cc2c(c(C(F)(F)F)c1)CN(c1cccc([C@@](C)(F)C(F)(F)c3nncn3C)c1)C2=O [Compound 444, 6-((S)-2,4-Dimethylpiperazin-1-yl)-2-(3-((R)-1,1,2-trifluoro-1-(4-methyl-4H-1,2,4-triazol-3-yl)propan-2-yl)phenyl)-4-(trifluoromethyl)isoindolin-1-one]	≤ 0.1	1.01 to 1.3	1.01 to 1.3	1.31 to 1.5	0.101 to 0.15	> 0.201	1.01 to 2.5	5 to 7.5	> 7.5	> 1	> 1	< 0.1
Cn1cnnc1CC1(c2cccc(N3Cc4c(cc(CO)cc4C(F)(F)F)C3=O)c2)COC1 [Compound 437, 6-(hydroxymethyl)-2-(3-(3-((4-methyl-4H-1,2,4-triazol-3-yl)methyl)oxetan-3-yl)phenyl)-4-(trifluoromethyl)isoindolin-1-one]	≤ 0.1	1.01 to 1.3	1.31 to 1.5	1.51 to 1.75	0.101 to 0.15	0.051 to 0.1	2.51 to 5	5 to 7.5	> 7.5	0.601 to 0.8	0.601 to 0.8	< 0.1
Cn1cnnc1CC1(c2cccc(N3Cc4c(cc(CN5CCCC56COC6)cc4C(F)(F)F)C3=O)c2)COC1 [Compound 433, 2-(3-{3-[(4-methyl-4H-1,2,4-triazol-3-yl)methyl]oxetan-3-yl}phenyl)-6-({2-oxa-5-azaspiro[3,4]octan-5-yl}methyl)-4-(trifluoromethyl)-2,3-dihydro-1H-isoindol-1-one]	≤ 0.1	1.01 to 1.3	1.31 to 1.5		0.151 to 0.2		1.01 to 2.5	5 to 7.5		0.801 to 1		< 0.1
CN1CC2CCC(C1)N2c1cc2c(c(C(F)(F)F)c1)CN(c1cccc([C@@](C)(F)C(F)(F)c3nncn3C)c1)C2=O [Compound 445, 6-(3-Methyl-3,8-diazabicyclo[3.2.1]octan-8-yl)-2-(3-((R)-1,1,2-trifluoro-1-(4-methyl-4H-1,2,4-triazol-3-yl)propan-2-yl)phenyl)-4-(trifluoromethyl)isoindolin-1-one]	≤ 0.1	1.31 to 1.5	1.51 to 1.75	1.51 to 1.75	> 0.201	> 0.201	5 to 7.5	> 7.5	> 7.5	> 1	> 1	< 0.1
C[C@@H]1CN(C)CCN1c1cc2c(c(C(F)(F)F)c1)CN(c1cccc(C3(Cc4nncn4C)COC3)c1)C2=O [Compound 390, (R)-6-(2,4-Dimethylpiperazin-1-yl)-2-(3-(3-((4-methyl-4H-1,2,4-triazol-3-yl)methyl)oxetan-3-yl)phenyl)-4-(trifluoromethyl)isoindolin-1-one]	≤ 0.1	1.01 to 1.3	1.31 to 1.5		0.151 to 0.2		2.51 to 5	> 7.5		> 1		< 0.1
Cn1cnnc1[C@@H]1C[C@@H]1c1cccc(N2Cc3c(cc(CN4CC[C@H](F)C4)cc3C(F)(F)F)C2=O)c1 [Compound 409, 6-(((S)-3-fluoropyrrolidin-1-yl)methyl)-2-(3-((1S,2R)-2-(4-methyl-4H-1,2,4-triazol-3-yl)cyclopropyl)phenyl)-4-(trifluoromethyl)isoindolin-1-one]	≤ 0.1	1.31 to 1.5	1.31 to 1.5	1.51 to 1.75	> 0.201	> 0.201	2.51 to 5	> 7.5	> 7.5	> 1	> 1	< 0.1
CC(O)c1cc2c(c(C(F)(F)F)c1)CN(c1cccc(C3(Cc4nncn4C)COC3)c1)C2=O (stereo not drawn) [Compound 540, 6-(l-hydroxyethyl)-2-(3-(3-((4-methyl-4H-1,2,4-triazol-3-yl)methyl)oxetan-3-yl)phenyl)-4-(trifluoromethyl)isoindolin-1-one]	≤ 0.1	1.01 to 1.3	1.01 to 1.3		0.151 to 0.2		1.01 to 2.5	2.51 to 5		> 1		< 0.1
Cc1cc(C(=O)Nc2cccc(C3(Cc4nocc4C)COC3)c2)nc(C2CC2)n1 [Compound 509, 2-cyclopropyl-6-methyl-N-(3-{3-[(4-methyl-1,2-oxazol-3-yl)methyl]oxetan-3-yl}phenyl)pyrimidine-4-carboxamide]	≤ 0.1	1.31 to 1.5	1.31 to 1.5		> 0.201		> 7.5	> 7.5		> 1		< 0.1
CC(c1cc(C(=O)Nc2cccc(C3(Cc4nncn4C)COC3)c2)nc(C2CC2)n1)N1CC(F)C1 (stereo not shown) [Compound 538, 2-cyclopropyl-6-(1-(3-fluoroazetidin-1-yl)ethyl)-N-(3-(3-((4-methyl-4H-1,2,4-triazol-3-yl)methyl)oxetan-3-yl)phenyl)pyrimidine-4-carboxamide]	≤ 0.1	1.01 to 1.3	1.31 to 1.5		0.101 to 0.15		1.01 to 2.5	2.51 to 5		0.801 to 1		< 0.1
Cn1cnnc1C(F)(F)[C@](C)(F)c1cccc(N2Cc3c(cc(CN4CC(C#N)C4)cc3C(F)(F)F)C2=O)c1 [Compound 456, (R)-1-((3-oxo-2-(3-(1,1,2-trifluoro-1-(4-methyl-4H-1,2,4-triazol-3-yl)propan-2-yl)phenyl)-7-(trifluoromethyl)isoindolin-5-yl)methyl)azetidine-3-carbonitrile]	≤ 0.3	1.01 to 1.3	1.01 to 1.3	1.01 to 1.3	0.051 to 0.1	0.101 to 0.15	1.01 to 2.5	2.51 to 5	5 to 7.5	0.801 to 1	> 1	0.1 to 0.3
Cn1cnnc1CC1(c2cccc(N3Cc4c(cc(CN5C[C@@H](F)[C@@H](F)C5)cc4C(F)(F)F)C3=O)c2)COC1 [Compound 414, 6-((cis-3,4-Difluoropyrrolidin-1-yl)methyl)-2-(3-(3-((4-methyl-4H-1,2,4-triazol-3-yl)methyl)oxetan-3-yl)phenyl)-4-(trifluoromethyl)isoindolin-1-one]	≤ 0.1	1.31 to 1.5	1.31 to 1.5	1.51 to 1.75	0.151 to 0.2	> 0.201	> 7.5	> 7.5	> 7.5	0.801 to 1	> 1	< 0.1
